Measured values published in patent US10399991B2, “Kv1.3 inhibitors and their medical applications” (4SC AG, priority 2015, dated 2019).

Tests used:
Kv1.3 = Kv1.3 (Homo sapiens (Human), UniProt P22001); experiment: Patch-clamp assay for inhibitory activity on Kv1.3 (whole cell patch-clamp recording); format: cell-based; settings: n≥2 per concentration
Protocol: Patch-Clamp Assay for Inhibitory Activity on Kv1.3
For a description of a Kv1.3 patch-clamp assay, see Grissmer et al., Mol. Pharmacol. 1994, 45, 1227; whole cell patch-clamp recording was performed with n≥2 individual experiments at each compound concentration using different cells. Three or more different concentrations were determined per dose response curve.

[1] = system: Peripheral blood mononuclear cells (PBMC); experiment: T cell proliferation assay (anti-CD3 activated PBMC, BrdU based cell proliferation ELISA); settings: human PBMC, TRAM-34 (5 μM), 50 ng/ml anti-CD3, 48 hours; read-out: IC50(BrdU incorporation)
Excerpt: T cell proliferation assay (in analogy to Pegoraro et al., Bioorg. Med. Chem. Lett. 2009, 19, 2299)
Peripheral blood mononuclear cells (PBMC) from healthy human donors were isolated by centrifugation over a density gradient in an aqueous solution, comprising a high molecular weight polysaccharide and sodium diatrizionate, and having a density of 1.077±0.001 (Ficoll-Hypaque by Sigma-Aldrich, Germany; according to manufacturer's instructions). Purified PBMC were washed twice with PBS and resuspended in RPMI1640 culture medium (Gibco—Life Technologies) supplemented with 10% heat inactivated fetal calf serum, 1.5 mM L-glutamine, 100 U penicillin/ml, and 100 […] (all from PAA—GE Healthcare). For stimulation, PBMC were seeded at 1×10^5 cells/well, incubated with TRAM-34 (5 μM) and the test compounds for 4 h and activated with 50 ng/ml anti-CD3 (from eBioscience). After 48 hours proliferation was measured using a BrdU based cell proliferation ELISA according to the manual.

female Dark Agouti rats = experiment: Pristane-induced Arthritis (PIA) model; format: in vivo, rat; settings: for Arthritic Index (AI): maximum AI=16, controls AI around 14; for amelioration of arthritis: Example 53 60 mg/kg p.o. sid, Example 34 45 mg/kg p.o. bid
Protocol: Pristane-induced Arthritis (PIA) Model:
Arthritis was induced in female Dark Agouti rats by intradermal injection of 150 μL/rat pristane into the base of the tail on DAY0, according to Vingsbo et al., Am. J. Pathol. 1996, 149, 1675. Compound treatment was started on DAY16 and continued until DAY30, dosing Example 53 at 60 mg/kg, p.o., sid, and Example 34 at 45 mg/kg, p.o., bid, each in a lipophilic formulation. As a positive control, methotrexate (MTX) was dosed i.p., sid, with 0.05 mg/kg, also starting DAY16. Arthritis development was monitored daily by a macroscopic scoring system for the four limbs ranging from 0 to 4 (0=no visible effects of arthritis; 1=edema and/or erythema of one digit; 2=edema and/or erythema of two joints; 3=edema and/or erythema of more than two joints; 4=severe arthritis of the entire paw and digits, associated with ankylosis and deformity of the paw.), resulting in an Arthritic Index (AI) reflecting the sum of scores of all 4 limbs per rat (maximum AI=16).

Sequence of Kv1.3 (P22001 whole entry): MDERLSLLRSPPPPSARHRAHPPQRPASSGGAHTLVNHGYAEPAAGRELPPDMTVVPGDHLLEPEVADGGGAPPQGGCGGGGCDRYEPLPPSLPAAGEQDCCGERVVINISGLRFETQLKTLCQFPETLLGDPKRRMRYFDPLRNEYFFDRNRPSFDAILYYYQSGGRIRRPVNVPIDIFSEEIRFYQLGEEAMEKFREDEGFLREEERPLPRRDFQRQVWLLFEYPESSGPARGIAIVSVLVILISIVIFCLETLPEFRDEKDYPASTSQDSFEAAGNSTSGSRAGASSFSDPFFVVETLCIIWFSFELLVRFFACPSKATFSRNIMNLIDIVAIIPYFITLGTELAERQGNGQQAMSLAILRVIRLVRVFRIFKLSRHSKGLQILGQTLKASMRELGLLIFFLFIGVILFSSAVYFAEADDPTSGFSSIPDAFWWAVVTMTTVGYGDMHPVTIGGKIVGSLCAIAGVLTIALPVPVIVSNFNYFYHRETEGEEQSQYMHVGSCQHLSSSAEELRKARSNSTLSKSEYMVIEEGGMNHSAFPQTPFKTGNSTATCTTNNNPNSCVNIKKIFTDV

| Compound | IC50 (Kv1.3) | IC50 [1] | Arthritic Index (AI) (female Dark Agouti rats; 45 mg/kg, p.o., bid, DAY16 to DAY30) | amelioration of arthritis (female Dark Agouti rats; DAY16 to DAY30) | Arthritic Index (AI) (female Dark Agouti rats; 60 mg/kg, p.o., sid, DAY16 to DAY30) | Arthritic Index (AI) (female Dark Agouti rats; 0.05 mg/kg, i.p., sid, from DAY16) |
| --- | --- | --- | --- | --- | --- | --- |
| Cc1c(-c2ccccc2)c2cc3c(C)coc3c(C)c2oc1=O [Example 9, 3,6,9-trimethyl-5-phenyl-7H-furo[3,2-g]chromen-7-one] | ≤ 500 nM | ≤ 1200 nM |  |  |  |  |
| CCOc1ccccc1-c1c(C)c(=O)oc2c(C)c3occ(C)c3cc12 [Example 10, 5-(2-ethoxyphenyl)-3,6,9-trimethyl-7H-furo[3,2-g]chromen-7-one] | ≤ 500 nM | ≤ 1200 nM |  |  |  |  |
| Cc1c(-c2ccccc2Cl)c2cc3c(C)coc3c(C)c2oc1=O [Example 11, 5-(2-chlorophenyl)-3,6,9-trimethyl-7H-furo[3,2-g]chromen-7-one] | ≤ 500 nM | 1300 to 3000 nM |  |  |  |  |
| CCc1coc2c(C)c3oc(=O)c(C)c(-c4ccccc4)c3cc12 [Example 16, 3-ethyl-6,9-dimethyl-5-phenyl-7H-furo[3,2-g]chromen-7-one] | ≤ 500 nM | ≤ 1200 nM |  |  |  |  |
| Cc1c(-c2ccccc2)c2cc3c(C)coc3nc2oc1=O [Example 25, 3,6-dimethyl-5-phenyl-7H-furo[2,3-b]pyrano[3,2-e]pyridin-7-one] | ≤ 500 nM | 1300 to 3000 nM |  |  |  |  |
| Cc1coc2c(C)c3[nH]c(=O)c(Br)c(-c4ccccc4)c3cc12 [Example 26, 6-bromo-3,9-dimethyl-5-phenylfuro[3,2-g]quinolin-7(8H)-one] | ≤ 500 nM | ≤ 1200 nM |  |  |  |  |
| Cc1c(-c2ccccc2F)c2cc3c(C)coc3c(C)c2[nH]c1=O [Example 30, 5-(2-fluorophenyl)-3,6,9-trimethylfuro[3,2-g]quinolin-7(8H)-one] | ≤ 500 nM | 1300 to 3000 nM |  |  |  |  |
| Cc1c(-c2ccccc2)c2cc3c(C)coc3c(C)c2[nH]c1=O [Example 31, 3,6,9-trimethyl-5-phenylfuro[3,2-g]quinolin-7(8H)-one] | ≤ 500 nM | ≤ 1200 nM |  |  |  |  |
| Cc1c(-c2ccccc2)c2cc3c(C)coc3c(C)c2n(C)c1=O [Example 34, 3,6,8,9-tetramethyl-5-phenylfuro[3,2-g]quinolin-7(8H)-one] | ≤ 500 nM | 1300 to 3000 nM | around 9.1 | significant amelioration of arthritis |  |  |
| Cc1csc2c(C)c3oc(=O)cc(-c4ccccc4)c3cc12 [Example 37, 6,9-dimethyl-4-phenyl-2H-thieno[3,2-g]chromen-2-one] | 501 to 1500 nM | 3100 to 15000 nM |  |  |  |  |
| CN(Cc1cnc2nc(N)nc(N)c2n1)c1ccc(C(=O)N[C@@H](CCC(=O)O)C(=O)O)cc1 [MTX, methotrexate, reference compound] |  |  |  |  |  | ~8.7 |

The next lines start with results.

| IC50 (Kv1.3) | Compound | IC50 [1] | Arthritic Index (AI) (female Dark Agouti rats; 45 mg/kg, p.o., bid, DAY16 to DAY30) | amelioration of arthritis (female Dark Agouti rats; DAY16 to DAY30) | Arthritic Index (AI) (female Dark Agouti rats; 60 mg/kg, p.o., sid, DAY16 to DAY30) | Arthritic Index (AI) (female Dark Agouti rats; 0.05 mg/kg, i.p., sid, from DAY16) |
| --- | --- | --- | --- | --- | --- | --- |
| ≤ 500 nM | Cc1c(-c2ccccc2Cl)c2cc3c(C)coc3c(C)c2[nH]c1=O [Example 40, 5-(2-chlorophenyl)-3,6,9-trimethylfuro[3,2-g]quinolin-7(8H)-one] | ≤ 1200 nM |  |  |  |  |
| ≤ 500 nM | Cc1c2oc(=O)cc(-c3ccccc3)c2cc2c(C3CC3)coc12 [Example 41, 3-cyclopropyl-9-methyl-5-phenyl-7H-furo[3,2-g]chromen-7-one] | 1300 to 3000 nM |  |  |  |  |
| ≤ 500 nM | Cc1c(-c2ccccc2)c2cc3c(C)csc3c(C)c2oc1=O [Example 43, 3,6,9-trimethyl-4-phenyl-2H-thieno[3,2-g]chromen-2-one] | 1300 to 3000 nM |  |  |  |  |
| ≤ 500 nM | Cc1c(-c2ccccc2)c2cc3c(C)coc3nc2n(C)c1=O [Example 49, 3,6,8-trimethyl-5-phenylfuro[2,3-b][1,8]naphthyridin-7(8H)-one] | 3100 to 15000 nM |  |  |  |  |
| ≤ 500 nM | Cc1c(-c2cccnc2)c2cc3c(C)coc3c(C)c2oc1=O [Example 53, 3,6,9-trimethyl-5-(pyridin-3-yl)-7H-furo[3,2-g]chromen-7-one] | 1300 to 3000 nM |  | significant amelioration of arthritis | around 10.4 |  |
| ≤ 500 nM | Cc1c(-c2cccnc2)c2cc3c(C)coc3c(C)c2[nH]c1=O [Example 54, 3,6,9-trimethyl-5-(pyridin-3-yl)furo[3,2-g]quinolin-7(8H)-one] | 3100 to 15000 nM |  |  |  |  |
| 501 to 1500 nM | Cc1c(-c2cccnc2)c2cc3c(C)coc3c(C)c2n(C)c1=O [Example 55, 3,6,8,9-tetramethyl-5-(pyridin-3-yl)furo[3,2-g]quinolin-7(8H)-one] | 3100 to 15000 nM |  |  |  |  |
